Read-outs that look alike come from different tables or passages of the source.
How the values were obtained:
female quail = test system: female quail; design: method as in ref 41 = [41]; 41 Labaque MC , Kembro JM , Luna A , Marin RH . Effects of thymol feed supplementation on female Japanese quail ( Coturnix coturnix ) behavioral fear response . Anim Feed Sci Technol . 2013; 183 ( 1–); conditions: THY2, 2 g of THY per kg of feed; cited from earlier work
[1] = Thymol quantification in quail droppings (HS-SPME/GC-MS) during chronic dietary supplementation; format: in vivo, Coturnix japonica; conditions: for concentration at 2 days / concentration at 9 days / concentration at 16 days / concentration at 26 days: female, Japanese quail (Coturnix japonica), droppings, oral, read-out: THY concentration in droppings
Description: (§1) A total of 50 eighty-five days-old female quail of homogeneous body weights (251 ± 1 g; Mean ± SE) and in their egg-laying peak were selected from an initial group of 96 female individuals. All birds continued receiving a basal diet between 85 and 100 days of age and all variables (see below for details) were registered along this period (Pre-supplementation period, Fig 1). From 100 to 128 days of age (S period, Fig 1), females were randomly assigned to either a chronic dietary supplementation with one of 3 THY doses (THY2, THY4 and THY6; 10 females each) or to one of 2 control groups (basal diet, BASAL, and basal diet with vehicle solution, VEHICLE; 10 females each). Once finished the S period, half of the quail were slaughtered for histological analysis (n = 25; Slaughter 1, Fig 1) and the other half were subjected to a pS period of 21 days, during which all females received the BASAL diet (pS, Fig 1). After this period, the remaining 25 animals were also slaughtered for histological analysis (Slaughter 2, Fig 1). In this way, we assessed whether THY induced changes in variables indicative of tissue damage and if so, whether the potential damages could reverse after 3 weeks of supplement withdrawal.
(§2) To assess changes in egg yolk total FA composition, egg physical characteristics, laying rate, body weight, feed intake and general welfare, during the S and pS periods, five sampling points were defined (Sample points, Fig 1): one initial sample point (at 0 days of S); three sample points during the S period (at 7, 14 and 28 days of S); and one sample point at the end of the pS period (21 days of pS). It should be noted that for determinations of THY concentration, eggs and quail droppings were collected offset from the other variables measured by 2 days, thus were collected on days 2, 9, 16, and 26 days of S, and 17 days of pS, respectively.
(§3) Thymol was commercially obtained from Sigma-Aldrich (SAFC®, ⩾99%; FCC, Saint Louis, MO, USA). Supplemented quail were provided 2, 4 or 6.25 g of THY per kg of feed. For this end, THY was prepared in a 2.4, 4.8 and 7.5% w/v ethanolic solution and uniformly sprayed on fresh feed. The feed was prepared and administrated daily, to minimize THY volatilization from feed before its consumption by females. The doses were selected considering two factors. The first, the concentration range for which the transfer of THY to the chicken and/or quail egg has been established. Second, the concentrations of THY supplementation that have shown biological effects. […] In this context, THY4 is and intermediate dose between the last two. Nutrient and FA compositions of the diets supplied were identical between each other and are reported in S1, S2 and S3 Tables, and are in accordance with the National Research Council recommendation.
(§4) Egg yolks and droppings of each female were obtained at each sample point (Sample points, Fig 1) and THY concentration was immediately measured by head space-solid phase microextraction followed by gas chromatography-mass spectrometry (HS-SPME/GC-MS) according to Fernandez et al.. SPME was performed with a manual holder with 100 um polydimethylsiloxane (PDMS) fiber. An aliquot of egg yolk (3 g), droppings (5 g) or feed (5 g) was put in a sealed 20 mL glass vial, spiked at the corresponding level with the standard m-cresol (Sigma-Aldrich; ≥ 99% (GC); Saint Louis, MO, USA) stock solution, and vortexed for 5 min. The vials were placed in a water bath and the PDMS fiber was exposed to the headspace for 30 min at 60°C and 5 min at 40°C for egg yolk and droppings or feed, respectively. The fiber was then inserted directly into the GC injector for desorption at 250°C for 10 min in splitless mode. Chromatography analysis was carried out in a Perkin Elmer Clarus 600 equipped with a PSSI injector and a quadrupole MS detector (Perkin Elmer, USA). Turbo Mass 5.4.2 software was used to control and acquire data from GC–MS. […]

[2] = design: method as in ref 14 = [14]; 14 Botsoglou N , Yannakopoulos AL , Fletouris DJ , Tserveni-Goussi AS , Fortomaris PD . Effect of dietary thyme on oxidative stability of egg yolk . J Agric Food Chem . 1997; 45 ( 10 ): 3711 – 6 .; conditions: cited from earlier work
[3] = Thymol quantification in egg yolk (HS-SPME/GC-MS) during chronic dietary supplementation; format: in vivo, Coturnix japonica; conditions: for concentration at 2 days of supplementation / concentration at 9 days of supplementation / concentration at 16 days of supplementation / concentration at 26 days of supplementation / concentration at 17 days after supplement withdrawal: female, Japanese quail (Coturnix japonica), egg yolk, oral, read-out: THY concentration in egg yolk
Description: as §1, §2, §3, §4

[4] = THY2, 2 g of thymol/kg of feed, 2 days of S
[5] = THY2, 2 g of thymol/kg of feed, 9 days of S
[6] = THY2, 2 g of thymol/kg of feed, 16 days of S
[7] = THY2, 2 g of thymol/kg of feed, 26 days of S
[8] = THY2, 2 g of thymol/kg of feed, pS, 17 days of supplement withdrawal
[9] = THY4, 4 g of thymol/kg of feed, 2 days of S
[10] = THY4, 4 g of thymol/kg of feed, 9 days of S
[11] = THY4, 4 g of thymol/kg of feed, 16 days of S
[12] = THY4, 4 g of thymol/kg of feed, 26 days of S
[13] = THY4, 4 g of thymol/kg of feed, pS, 17 days of supplement withdrawal
[14] = THY6, 6.25 g of thymol/kg of feed, 2 days of S
[15] = THY6, 6.25 g of thymol/kg of feed, 9 days of S
[16] = THY6, 6.25 g of thymol/kg of feed, 16 days of S
[17] = THY6, 6.25 g of thymol/kg of feed, 26 days of S
[18] = THY6, 6.25 g of thymol/kg of feed, pS, 17 days of supplement withdrawal
[19] = during the plateau, across THY2, THY4, THY6
[20] = 2 g/kg of feed, THY2, 2 g of thymol/kg of feed, 2 days of S
[21] = 2 g/kg of feed, THY2, 2 g of thymol/kg of feed, 9 days of S
[22] = 2 g/kg of feed, THY2, 2 g of thymol/kg of feed, 16 days of S
[23] = 2 g/kg of feed, THY2, 2 g of thymol/kg of feed, 26 days of S
[24] = 4 g/kg of feed, THY4, 4 g of thymol/kg of feed, 2 days of S
[25] = 4 g/kg of feed, THY4, 4 g of thymol/kg of feed, 9 days of S
[26] = 4 g/kg of feed, THY4, 4 g of thymol/kg of feed, 16 days of S
[27] = 4 g/kg of feed, THY4, 4 g of thymol/kg of feed, 26 days of S
[28] = 6.25 g/kg of feed, THY6, 6.25 g of thymol/kg of feed, 2 days of S
[29] = 6.25 g/kg of feed, THY6, 6.25 g of thymol/kg of feed, 9 days of S
[30] = 6.25 g/kg of feed, THY6, 6.25 g of thymol/kg of feed, 16 days of S
[31] = 6.25 g/kg of feed, THY6, 6.25 g of thymol/kg of feed, 26 days of S

Cc1ccc(C(C)C)c(O)c1 [THY, 2 isopropyl-5-methylphenol]
bird's locomotor activity (female quail): without affecting | female quail fear responses when exposed to stressful situations (female quail): reduces female quail fear responses | Percentage of THY transferred to droppings in relation to the amount ingested [1, 4]: 0.53% | Percentage of THY transferred to droppings in relation to the amount ingested [1, 5]: 2.33% | Percentage of THY transferred to droppings in relation to the amount ingested [1, 6]: 2.41% | Percentage of THY transferred to droppings in relation to the amount ingested [1, 7]: 3.47% | Percentage of THY transferred to droppings in relation to the amount ingested [1, 8]: 0.04% | THY concentration in droppings [1, 8]: 4.37 ng/g | Percentage of THY transferred to droppings in relation to the amount ingested [1, 9]: 0.25% | Percentage of THY transferred to droppings in relation to the amount ingested [1, 10]: 1.78% | Percentage of THY transferred to droppings in relation to the amount ingested [1, 11]: 1.91% | Percentage of THY transferred to droppings in relation to the amount ingested [1, 12]: 2.11% | Percentage of THY transferred to droppings in relation to the amount ingested [1, 13]: 0.12% | THY concentration in droppings [1, 13]: 30.58 ng/g | Percentage of THY transferred to droppings in relation to the amount ingested [1, 14]: 0.21% | Percentage of THY transferred to droppings in relation to the amount ingested [1, 15]: 1.33% | Percentage of THY transferred to droppings in relation to the amount ingested [1, 16]: 1.74% | Percentage of THY transferred to droppings in relation to the amount ingested [1, 17]: 1.57% | Percentage of THY transferred to droppings in relation to the amount ingested [1, 18]: 0.09% | THY concentration in droppings [1, 18]: 37.95 ng/g | THY transferred to the droppings, of the amount THY ingested [1, 19]: 1.57–3.47% | concentration at 2 days [1, 20]: 51.8 ng/g | concentration at 9 days [1, 21]: 229 ng/g | concentration at 16 days [1, 22]: 237 ng/g | concentration at 26 days [1, 23]: 342 ng/g | concentration at 2 days [1, 24]: 63.5 ng/g | concentration at 9 days [1, 25]: 459 ng/g | concentration at 16 days [1, 26]: 491 ng/g | concentration at 26 days [1, 27]: 542 ng/g | concentration at 2 days [1, 28]: 85 ng/g | concentration at 9 days [1, 29]: 550 ng/g | concentration at 16 days [1, 30]: 721 ng/g | concentration at 26 days [1, 31]: 650 ng/g | concentration of THY needed to be added to a control yolk for antioxidant activity equivalent to a yolk from a thyme treated hen [2]: 278 ug of THY/g of yolk | Percentage of THY transferred to egg yolk in relation to the amount ingested [3, 4]: 0.02% | Percentage of THY transferred to egg yolk in relation to the amount ingested [3, 5]: 0.23% | Percentage of THY transferred to egg yolk in relation to the amount ingested [3, 6]: 0.22% | Percentage of THY transferred to egg yolk in relation to the amount ingested [3, 7]: 0.25% | Percentage of THY transferred to egg yolk in relation to the amount ingested [3, 8]: 0.03% | Percentage of THY transferred to egg yolk in relation to the amount ingested [3, 9]: 0.01% | Percentage of THY transferred to egg yolk in relation to the amount ingested [3, 10]: 0.17% | Percentage of THY transferred to egg yolk in relation to the amount ingested [3, 11]: 0.17% | Percentage of THY transferred to egg yolk in relation to the amount ingested [3, 12]: 0.16% | Percentage of THY transferred to egg yolk in relation to the amount ingested [3, 13]: 0.02% | Percentage of THY transferred to egg yolk in relation to the amount ingested [3, 14]: 0.02% | Percentage of THY transferred to egg yolk in relation to the amount ingested [3, 15]: 0.14% | Percentage of THY transferred to egg yolk in relation to the amount ingested [3, 16]: 0.13% | Percentage of THY transferred to egg yolk in relation to the amount ingested [3, 17]: 0.13% | Percentage of THY transferred to egg yolk in relation to the amount ingested [3, 18]: 0.03% | THY transferred to the egg yolk, of the amount THY ingested [3, 19]: 0.13–0.25% | highest concentration of THY detected in egg yolk, molar equivalent ([3]; equivalent of 406 ng/g of egg yolk): ~ 3.05 uM | concentration at 2 days of supplementation [3, 20]: 12.5 ng/g | concentration at 9 days of supplementation [3, 21]: 156 ng/g | concentration at 16 days of supplementation [3, 22]: 150 ng/g | concentration at 26 days of supplementation [3, 23]: 169 ng/g | concentration at 17 days after supplement withdrawal ([3]; 2 g/kg of feed, THY2, 2 g of thymol/kg of feed, pS, 17 days of supplement withdrawal): 17.9 ng/g | concentration at 2 days of supplementation [3, 24]: 26.1 ng/g | concentration at 9 days of supplementation [3, 25]: 297 ng/g | concentration at 16 days of supplementation [3, 26]: 295 ng/g | concentration at 26 days of supplementation [3, 27]: 282 ng/g | concentration at 17 days after supplement withdrawal ([3]; 4 g/kg of feed, THY4, 4 g of thymol/kg of feed, pS, 17 days of supplement withdrawal): 36.3 ng/g | concentration at 2 days of supplementation [3, 28]: 42.9 ng/g | concentration at 9 days of supplementation [3, 29]: 407 ng/g | concentration at 16 days of supplementation [3, 30]: 372 ng/g | concentration at 26 days of supplementation [3, 31]: 377 ng/g | concentration at 17 days after supplement withdrawal ([3]; 6.25 g/kg of feed, THY6, 6.25 g of thymol/kg of feed, pS, 17 days of supplement withdrawal): 69.5 ng/g | highest concentration of THY detected in egg yolk ([3]; highest of the study): ~406 ng/g of egg yolk

From PMC6508865, “Dynamics of thymol dietary supplementation in quail (Coturnix japonica): Linking bioavailability, effects on egg yolk total fatty acids and performance traits” (PLoS ONE, 2019)
